This assay has as its target T1, fatty acid cyclooxygenase (Homo sapiens, UniProt P23219).
T1 construct: The solubilized fatty acid cyclooxygenase was applied to a 440 ml electrofocusing column; from tissue; host or cells: human platelets: microsomes solubilized with Triton X-100, purified by electrofocusing and G-200 Sephadex
Put plainly: Fatty Acid Cyclooxygenase (FCO) Assay, inhibition of PGE2 formation by purified human platelet enzyme. Type of assay: biochemical. The conditions noted are these: for IC50: human platelet microsomal enzyme, pH 8.0, 37° C.; for inhibition at 30 µg/mL: percent inhibition at 30 μg/ml. Here is the method: Fatty Acid Cyclooxygenase (FCO) Assay
Microsomes were prepared from 185 bags of human platelets (each bag containing the platelets from one pint of blood prepared using differential centrifugation procedures). The platelets from approximately 60 bags were prepared at one time. Platelet-rich plasma (500 g) was centrifuged at 10,000×g for 20 minutes, and the platelet pellet was suspended in 100 ml of 0.1M potassium phosphate buffer, pH 8.0, with a Teflon glass homogenizer and sonicated for 5.0 minutes with a Bronson Sonifier (Model 350) in a rosette flask cooled in ice water. Disrupted platelets were centrifuged 15 minutes at 10,000× g. The supernatant was centrifuged at 100,000× g for 90 minutes and the microsomal pellets were homogenized in 25 ml of 20% sucrose containing 1.0% Triton X-100 detergent. After 30 minutes at 4° C., the solubilized microsomes were centrifuged at 100,000× g for 60 minutes. The yellow supernatant was removed and stored at -70 ° C.
The solubilized fatty acid cyclooxygenase was applied to a 440 ml electrofocusing column (LKB-8012) containing 1% phisolytes (Brinkman Instruments, Westburgh, NY), pH 2-11, with the cathode at the top of the column. The enzyme was layered onto the column at the appropriate time so that its sucrose concentration was equal to that of the column gradient. This was accomplished by checking the gradient concentration periodically with a sucrose hand refractometer. Electrofocusing was carried out for 16 hours with an initial voltage of 400 V and a final voltage of 900-1,000 volts. Fractions were collected (20 ml) and assayed for PGE2 formation. Active peak fractions were pooled and concentrated by ultrafiltration (XM 100A) to a volume of 3-5 ml.
Active fractions from electrofocusing were applied to a G-200 Sephadex column (2 cm×46 cm) and eluted with 10 mM potassium phosphate buffer, pH 7.0, in 5 ml fractions. After assay, active fractions were poored and concentrated to 1.0 ml by ultrafiltration (XM 100A), and kept frozen at -70° C.
Enzyme activity was determined by assaying for PGE2 formation by preincubating the enzyme with 10 mmol/l imidazole phosphate buffer, pH 8.0, 2 mmol/l epinephrine, 2 mmol/l methemoglobin, and the test compound (30 μg/ml) in a total volume of 0.2 ml for one minute at 37° C. After preincubation, 5 mmol/l ^14 C-arachidonic acid were added and the mixture was incubated an additional 0.5 minutes at 37° C. The enzyme reaction was stopped by the addition of 2 μl of indomethacin (2 mg/ml) in alcohol.
The reaction mixture was spotted (50 μl) on a silica gel (LQ6D) plate and subjected to TLC. The solvent system consisted of chloroform-methanol-glacial acetic acid (90:5:5, v/v/v) and the relative mobilities were PGF2α =0.235, and PGE2 =0.47. The silica gel on the plate was scraped in 1 cm sections, suspended in 5 ml of the scintillation fluid [5.88 g of 2,5-diphenyloxazole and 118 mg of 1,4 -bis(5-phenyloxazol-2-yl)benzene] dissolved in 650 ml of toluene and 350 ml of Triton X-100) and the radioactivity was determined in an Isocap/300 liquid scintillation counter (Searle Analytic, Inc., Southfield, Mich.). Another 50 μl of the mixture was added to 10 ml of the Triton X-100 based scintillation fluid, and the radioactivity was determined so that the amount of radioactivity recovery from the TLC plate could be ascertained. PGE2 formation for each test compound was determined as a percent of control experiments wherein no test compound was added. Data is expressed in Table I either as the percent inhibition of formation of PGE2 at a test compound concentration of 30 μ g/ml, or as an IC50 for inhibition of PGE2 formation.

The results in this text go back to patent US4801616A, “Diphenylmethanone compounds and anti-inflammatory use thereof” (Eli Lilly and Company, priority 1986, dated 1989).

T1 sequence (P23219 24-599): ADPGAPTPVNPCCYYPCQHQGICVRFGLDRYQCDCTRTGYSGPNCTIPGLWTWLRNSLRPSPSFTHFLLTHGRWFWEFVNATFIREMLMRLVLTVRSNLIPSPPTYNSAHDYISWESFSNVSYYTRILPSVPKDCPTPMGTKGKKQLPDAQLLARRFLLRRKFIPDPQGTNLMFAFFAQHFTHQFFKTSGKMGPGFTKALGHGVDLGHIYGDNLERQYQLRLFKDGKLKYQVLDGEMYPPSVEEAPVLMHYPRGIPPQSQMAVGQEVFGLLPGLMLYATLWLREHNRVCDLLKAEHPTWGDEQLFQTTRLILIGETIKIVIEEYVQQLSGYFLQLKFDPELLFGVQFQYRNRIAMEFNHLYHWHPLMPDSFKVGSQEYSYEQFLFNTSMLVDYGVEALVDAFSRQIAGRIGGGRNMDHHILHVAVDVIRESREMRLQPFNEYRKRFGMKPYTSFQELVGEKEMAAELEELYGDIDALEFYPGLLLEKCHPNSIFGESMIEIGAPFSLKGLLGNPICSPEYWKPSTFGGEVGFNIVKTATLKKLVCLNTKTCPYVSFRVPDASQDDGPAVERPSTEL

Usually IC50 stands for the concentration that gives 50% inhibition. Low readings indicate higher potency, high ones lower potency. In the case of `CCCc1c(O)ccc(C(=O)c2ccccc2O)c1O` [Example 4, (2,4-Dihydroxy-3-propylphenyl)(2hydroxyphenyl)methanone], the IC50 is 1.1 µM.
As usually defined, the inhibition is the drop in the measured response relative to a control, in per cent. Take `COc1ccccc1C(=O)c1ccc(OC)c(C)c1O` [Example 9, (2-hydroxy-4-methoxy-3-methylphenyl)(2-methoxyphenyl)methanone]: the inhibition at 30 µg/mL is 35%.
In turn, `CCCc1c(OCCCCC#N)ccc(C(=O)c2ccccc2O)c1O` [Example 11, 5-[3-Hydroxy-4-(2-hydroxybenzoyl)-2-propylphenoxy]pentanenitrile] gave an IC50 of 84.9 µM.
As to `CCCc1c(OCCCCc2nnn[nH]2)ccc(C(=O)c2ccccc2OC)c1O` [Example 23, (2-Hydroxy-3-propyl-4-[4-(1H-tetrazol-5-yl)butoxy]phenyl)(2-methoxyphenyl)methanone], the inhibition at 30 µg/mL was determined as 17%.
Take `CCCc1c(OCCCCCCc2nnn[nH]2)ccc(C(=O)c2ccccc2O)c1O` [Example 25, (2-Hydroxyphenyl)[2-hydroxy-3-propyl-4-([6-(1H-tetrazol-5-yl)hexyl]oxy)phenyl]methanone]: half-maximal inhibition (IC50) was put at 12.7 µM. This lies in the double-digit micromolar range.
Compound `CCCc1c(OCCCCc2nnn[nH]2)ccc(C(=O)c2ccccc2O)c1O` [Example 26, (2-Hydroxyphenyl)(2-hydroxy-3-propyl-4[4-(1H-tetrazol-5-yl)butoxy]phenyl)methanone] came in with an inhibition at 30 µg/mL of 44%.
`CCCc1c(OCCCCCCCCc2nnn[nH]2)ccc(C(=O)c2ccccc2O)c1O` [Example 28, (2-Hydroxyphenyl)[2-hydroxy-3-propyl-4-([8-(1H-tetrazol-5-yl)octyl]oxy)phenyl]methanone] showed an IC50 of 12.2 µM.
`CCCc1c(OCCCCC(=O)O)ccc(C(=O)c2ccccc2O)c1O` [Example 30, 5-[3-Hydroxy-4-(2-hydroxybenzoyl)-2-propylphenoxy]pentanoic acid] gave an IC50 of 121 µM.
